Source: ChEMBL document CHEMBL2176876, “Discovery of potent and selective pyrazolopyrimidine janus kinase 2 inhibitors” (J Med Chem, 2012)

Legend:
[1] = Volume of distribution at steady state in Sprague-Dawley rat at 0.1 to 1 mg/kg, iv; assay type: ADME, organism-based; parameters: dose 0.1-1 mg/kg, route intravenous; conditions: in vivo, read-out: Vdss
[2] = Permeability from apical to basolateral side in MDCK cells; assay type: ADME, cell-based, Canis lupus familiaris; conditions: dog, read-out: permeability
[3] = Oral bioavailability in Sprague-Dawley rat at 5 mg/kg; assay type: ADME, organism-based; conditions: in vivo
[4] = Volume of distribution at steady state in Balb/C mouse at 0.5 mg/kg, iv; assay type: ADME, organism-based; parameters: dose 0.5 mg/kg, route intravenous; conditions: in vivo, read-out: Vdss
[5] = Oral bioavailability in Balb/C mouse at 5 mg/kg; assay type: ADME, organism-based; conditions: in vivo

| Vd [1] [L/kg] | Papp A→B [2] [×10⁻⁶ cm/s] | bioavailability [3] [%] | Vd [4] [L/kg] | bioavailability [5] [%] | Compound |
| --- | --- | --- | --- | --- | --- |
| 0.843 | 15.1 | 30 |  |  | CNc1ccn2ncc(C(=O)Nc3cc(C)nn3-c3cccc(Cl)c3)c2n1 |
| 0.293 | 10.5 | 44 |  |  | Cc1cc(NC(=O)c2cnn3cccnc23)n(-c2cccc(Cl)c2)n1 |
| 0.185 | 8.4 | 1 | 0.27 | 8.6 | Cc1cc(NC(=O)c2cnn3ccc(N)nc23)n(-c2cccc(Cl)c2)n1 |
| 0.355 |  | 7 |  |  | Cn1cc(NC(=O)c2cnn3ccc(N)nc23)c(-c2cccc(Cl)c2)n1 |
| 0.349 |  | 124 |  |  | Cn1cc(NC(=O)c2cnn3cccnc23)c(-c2cccc(Cl)c2)n1 |
| 1.08 | 10.5 | 63 |  |  | Cn1cc(NC(=O)c2cnn3ccc(N)nc23)c(-c2cc(Cl)ccc2Cl)n1 |
